Assay results from US7772263B2, “Compounds for the treatment of inflammatory disorders” (Schering Corporation, priority 2006, dated 2010).

Biological target: T1, purified catalytic domain of recombinant human TACE (rhTACEc) (Homo sapiens, UniProt P78536, N452Q/S266A)
T1 construct: rhTACEc, Residue 215 to 477 with two mutation (S266A and N4520) and a 6×His tail; 6xHis (C); made in house; host or cells: baculovirus/Hi5 insect cells
Assay: TACE kinetic assay, cleavage of internally quenched fluorescent peptide substrate SPDL-3
Type: biochemical
Conditions: Ki (nM), TACE inhibitory activity, rhTACEc 70 pM, 30 μM SPDL-3, 90 min pre-incubation at 25° C.

T1 sequence (P78536 215-477 S266A/N452Q limits assumed): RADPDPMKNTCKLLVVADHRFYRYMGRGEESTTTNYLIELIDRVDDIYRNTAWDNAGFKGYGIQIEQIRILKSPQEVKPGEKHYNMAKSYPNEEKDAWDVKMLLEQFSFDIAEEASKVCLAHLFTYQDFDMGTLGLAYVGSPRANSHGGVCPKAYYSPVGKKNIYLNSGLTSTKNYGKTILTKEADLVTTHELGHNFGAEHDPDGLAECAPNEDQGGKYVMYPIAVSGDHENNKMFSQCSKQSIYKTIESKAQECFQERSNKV

SMILES | Ki [nM]
COc1ccc2c(c1)C(=O)N(C[C@@]1(C#Cc3ccc4[nH]ccc4c3)NC(=O)NC1=O)C2 [Compound 1129] | 0.17

Same assay, conditions: TACE; class letters A-D; read-out: Ki Rating

SMILES | Ki [nM]
COc1ccc2c(c1)CCN(C[C@@]1(C#Cc3cccnc3)NC(=O)NC1=O)C2=O [Compound 1092] | < 5
COc1ccc2c(c1)CCN(C[C@@]1(C#Cc3ccc(Cl)s3)NC(=O)NC1=O)C2=O [Compound 1093] | < 5
COc1ccc2c(c1)C(=O)N(C[C@]1(C#Cc3cnc4[nH]c(C)nc4c3C)NC(=O)NC1=O)C2 [Compound 1094] | > 100
COc1ccc2c(c1)C(=O)N(C[C@@]1(C#Cc3ccc4c(c3)n(C)c(=O)n4C)NC(=O)NC1=O)C2 [Compound 1095] | < 5
COc1ccc2c(c1)CCN(C[C@]1(C#Cc3cccnc3)NC(=O)NC1=O)C2=O [Compound 1096] | > 100
COc1ccc2c(c1)CCN(C[C@]1(C#Cc3ccc(Cl)s3)NC(=O)NC1=O)C2=O [Compound 1097] | > 100
COc1ccc2c(c1)C(=O)N(C[C@@]1(C#Cc3cnc4[nH]c(C)nc4c3C)NC(=O)NC1=O)C2 [Compound 1098] | < 5
COc1ccc2c(c1)C(=O)N(C[C@@]1(C#Cc3ccc4[nH]ccc4c3)NC(=O)NC1=O)C2 [Compound 1129] | < 5
COc1ccc2c(c1)C(=O)N(C[C@]1(C#Cc3ccc4[nH]ccc4c3)NC(=O)NC1=O)C2 [Compound 1130] | 5 to 25
COc1ccc2c(c1)C(=O)N(C[C@@]1(C#Cc3ccc4cc[nH]c4c3)NC(=O)NC1=O)C2 [Compound 1131] | < 5
COc1ccc2c(c1)C(=O)N(C[C@@]1(C#Cc3cccc4[nH]ccc34)NC(=O)NC1=O)C2 [Compound 1132] | < 5
COc1ccc2c(c1)C(=O)N(C[C@@]1(C#Cc3ccc(C(N)=O)cc3)NC(=O)NC1=O)C2 [Compound 1133] | < 5
COc1ccc2c(c1)C(=O)N(C[C@@]1(C#Cc3cccc(C(N)=O)c3)NC(=O)NC1=O)C2 [Compound 1134] | < 5
CCOC(=O)c1ccc(C#C[C@]2(CN3Cc4ccc(OC)cc4C3=O)NC(=O)NC2=O)cc1 [Compound 1135] | < 5
COc1ccc2c(c1)C(=O)N(C[C@@]1(C#Cc3ccc(-c4ncc[nH]4)cc3)NC(=O)NC1=O)C2 [Compound 1136] | < 5
COc1ccc2c(c1)C(=O)N(C[C@@]1(C#Cc3ccccc3C(N)=O)NC(=O)NC1=O)C2 [Compound 1137] | < 5
COc1ccc2c(c1)C(=O)N(C[C@@]1(C#Cc3ccc(C(=O)O)cc3)NC(=O)NC1=O)C2 [Compound 1138] | < 5
COc1ccc2c(c1)C(=O)N(C[C@@]1(C#Cc3ccc4c(c3)OCO4)NC(=O)NC1=O)C2 [Compound 1139] | < 5
COc1ccc2c(c1)C(=O)N(C[C@@]1(C#Cc3ccc(Cl)c(C(=O)O)c3)NC(=O)NC1=O)C2 [Compound 1140] | < 5
CNC(=O)c1ccc(C#C[C@]2(CN3Cc4ccc(OC)cc4C3=O)NC(=O)NC2=O)cc1 [Compound 1141] | < 5
COc1ccc2c(c1)C(=O)N(C[C@@]1(C#Cc3ccc(C(=O)NCCN(C)C)cc3)NC(=O)NC1=O)C2 [Compound 1142] | < 5
COc1ccc2c(c1)C(=O)N(C[C@@]1(C#Cc3ccc(Cl)c(C(=O)NCCN(C)C)c3)NC(=O)NC1=O)C2 [Compound 1143] | < 5
CNC(=O)c1cc(C#C[C@]2(CN3Cc4ccc(OC)cc4C3=O)NC(=O)NC2=O)ccc1Cl [Compound 1144] | < 5

SMILES | Ki [nM]
COc1ccc2c(c1)C(=O)N(C[C@@]1(C#Cc3ccc(C(=O)N4CCOCC4)cc3)NC(=O)NC1=O)C2 [Compound 1145] | < 5
COc1ccc2c(c1)C(=O)N(C[C@@]1(C#Cc3ccccc3Cl)NC(=O)NC1=O)C2 [Compound 1146] | < 5
COc1cccc(C#C[C@]2(CN3Cc4ccc(OC)cc4C3=O)NC(=O)NC2=O)c1 [Compound 1147] | < 5
COc1ccc2c(c1)C(=O)N(C[C@@]1(C#Cc3cccc(OC(F)F)c3)NC(=O)NC1=O)C2 [Compound 1148] | < 5
COc1ccc2c(c1)C(=O)N(C[C@@]1(C#Cc3ccc(F)c(OC)c3)NC(=O)NC1=O)C2 [Compound 1149] | < 5
COc1ccc2c(c1)C(=O)N(C[C@@]1(C#Cc3ccc(F)c(O)c3)NC(=O)NC1=O)C2 [Compound 1150] | < 5
COc1ccc2c(c1)C(=O)N(C[C@@]1(C#Cc3ccc(F)c(C(N)=O)c3)NC(=O)NC1=O)C2 [Compound 1151] | < 5
COc1ccc2c(c1)C(=O)N(C[C@@]1(C#Cc3ccc(N)nc3)NC(=O)NC1=O)C2 [Compound 1152] | < 5
COc1ccc2c(c1)C(=O)N(C[C@@]1(C#Cc3ccc(N4CCOCC4)nc3)NC(=O)NC1=O)C2 [Compound 1153] | < 5
COc1ccc2c(c1)C(=O)N(C[C@@]1(C#Cc3ccccc3C#N)NC(=O)NC1=O)C2 [Compound 1154] | < 5
COc1ccc2c(c1)C(=O)N(C[C@@]1(C#Cc3ccc(C)nc3)NC(=O)NC1=O)C2 [Compound 1155] | < 5
COc1ccc2c(c1)C(=O)N(C[C@@]1(C#Cc3ccc(C)cc3)NC(=O)NC1=O)C2 [Compound 1156] | < 5
COc1ccc2c(c1)C(=O)N(C[C@@]1(C#Cc3ccc(NC(C)=O)nc3)NC(=O)NC1=O)C2 [Compound 1157] | < 5
O=C1NC(=O)[C@@](C#Cc2cccnc2)(CN2Cc3ccc(F)cc3C2=O)N1 [Compound 1200] | < 5
COc1ccc2c(c1)CN(C[C@@]1(C#Cc3cc(F)cc(F)c3)NC(=O)NC1=O)C2=O [Compound 1201] | < 5
COc1ccc2c(c1)CN(C[C@@]1(C#Cc3ccc(F)cc3F)NC(=O)NC1=O)C2=O [Compound 1202] | < 5
COc1ccc2c(c1)C(=O)N(C[C@@]1(C#Cc3ccc4occc4c3)NC(=O)NC1=O)C2 [Compound 1203] | < 5
COc1ccc2c(c1)C(=O)N(C[C@@]1(C#Cc3cn(C)c(=O)n(C)c3=O)NC(=O)NC1=O)C2 [Compound 1204] | < 5
COc1ccc2c(c1)C(=O)N(C[C@@]1(C#Cc3c[nH]c(=O)[nH]c3=O)NC(=O)NC1=O)C2 [Compound 1205] | < 5
COc1ccc2c(c1)C(=O)N(C[C@@]1(C#Cc3nc4ncnc(N)c4n3C)NC(=O)NC1=O)C2 [Compound 1208] | < 5
O=C1NC(=O)[C@@](C#Cc2ccc3cnoc3c2)(CN2Cc3ccc(F)cc3C2=O)N1 [Compound 1211] | < 5
COc1ccc2c(c1)C(=O)N(C[C@@]1(C#Cc3ccc4nn(C(C)C)cc4c3)NC(=O)NC1=O)C2 [Compound 1212] | < 5
COc1ccc2c(c1)C(=O)N(C[C@@]1(C#Cc3ccc4c(cnn4C(C)C)c3)NC(=O)NC1=O)C2 [Compound 1213] | < 5

SMILES | Ki [nM]
COc1ccc2c(c1)C(=O)N(C[C@@]1(C#Cc3ccc4cnoc4c3)NC(=O)NC1=O)C2 [Compound 1214] | < 5
COc1ccc2c(c1)C(=O)N(C[C@@]1(C#Cc3cncc(-c4nnn(C)n4)c3)NC(=O)NC1=O)C2 [Compound 1215] | < 5
COc1ccc2c(c1)C(=O)N(C[C@@]1(C#Cc3ccc(N)c(OC(F)(F)F)c3)NC(=O)NC1=O)C2 [Compound 1216] | < 5
COc1ccc2c(c1)C(=O)N(C[C@@]1(C#Cc3cc(F)c(F)cc3OC)NC(=O)NC1=O)C2 [Compound 1217] | < 5
COc1ccc2c(c1)C(=O)N(C[C@@]1(C#Cc3ccc(F)cc3C#N)NC(=O)NC1=O)C2 [Compound 1218] | < 5
COc1ccc2c(c1)C(=O)N(C[C@@]1(C#Cc3cc(C)ccc3C#N)NC(=O)NC1=O)C2 [Compound 1219] | < 5
COc1ccc2c(c1)C(=O)N(C[C@@]1(C#Cc3ccc(-c4nnn(C)n4)s3)NC(=O)NC1=O)C2 [Compound 1220A] | < 5
COc1ccc2c(c1)C(=O)N(C[C@@]1(C#Cc3ccc(C(C)=O)cc3)NC(=O)NC1=O)C2 [Compound 1220B] | < 5
COc1ccc2c(c1)C(=O)N(C[C@@]1(C#Cc3ccc(S(C)(=O)=O)cc3)NC(=O)NC1=O)C2 [Compound 1220C] | > 100
COc1ccc2c(c1)C(=O)N(C[C@@]1(C#Cc3ccc4c(c3)NC(=O)C4=O)NC(=O)NC1=O)C2 [Compound 1220D] | < 5
COc1ccc2c(c1)C(=O)N(C[C@@]1(C#Cc3ncnc4[nH]ccc34)NC(=O)NC1=O)C2 [Compound 1220E] | < 5
COc1ccc2c(c1)C(=O)N(C[C@@]1(C#Cc3cncc(-c4nnn(C(C)C)n4)c3)NC(=O)NC1=O)C2 [Compound 1220] | < 5
COc1ccc2c(c1)C(=O)N(C[C@@]1(C#Cc3cccnc3C3CC3)NC(=O)NC1=O)C2 [Compound 1221] | < 5
COc1ccc2c(c1)C(=O)N(C[C@@]1(C#Cc3cnccc3C3CC3)NC(=O)NC1=O)C2 [Compound 1222] | < 5
COc1ccc2c(c1)C(=O)N(C[C@@]1(C#Cc3ccc(C(N)=O)c([N+](=O)[O-])c3)NC(=O)NC1=O)C2 [Compound 1250] | < 5
COc1ccc2c(c1)C(=O)N(C[C@@]1(C#Cc3ccc4c(c3)C(=O)NC4)NC(=O)NC1=O)C2 [Compound 1251] | < 5
COc1ccc2c(c1)C(=O)N(C[C@@]1(C#Cc3cccc4c3CNC4=O)NC(=O)NC1=O)C2 [Compound 1252] | < 5
COc1ccc2c(c1)C(=O)N(C[C@@]1(C#Cc3ccc4c(c3)CNC4=O)NC(=O)NC1=O)C2 [Compound 1253] | < 5
COc1ccc2c(c1)C(=O)N(C[C@@]1(C#Cc3ccc(-c4cncnc4)nc3)NC(=O)NC1=O)C2 [Compound 1254] | < 5
COc1ccc2c(c1)C(=O)N(C[C@@]1(C#Cc3cnc(-c4cccnc4)nc3)NC(=O)NC1=O)C2 [Compound 1256C] | < 5
COc1ccc2c(c1)C(=O)N(C[C@@]1(C#Cc3ccc(-c4nnc(C)o4)nc3)NC(=O)NC1=O)C2 [Compound 1500] | < 5

Same assay, conditions: rhTACEc 70 pM, 30 μM SPDL-3, 90 min pre-incubation at 25° C.; read-out: Ki (nM), TACE inhibitory activity

SMILES | Ki [nM]
COc1ccc2c(c1)CCN(C[C@@]1(C#Cc3cccnc3)NC(=O)NC1=O)C2=O [Compound 1092] | 0.37
COc1ccc2c(c1)C(=O)N(C[C@@]1(C#Cc3cccc4[nH]ccc34)NC(=O)NC1=O)C2 [Compound 1132] | 1.8
COc1ccc2c(c1)C(=O)N(C[C@@]1(C#Cc3ccc(N)nc3)NC(=O)NC1=O)C2 [Compound 1152] | 0.03
COc1ccc2c(c1)C(=O)N(C[C@@]1(C#Cc3ccc(C)nc3)NC(=O)NC1=O)C2 [Compound 1155] | 0.41
COc1ccc2c(c1)C(=O)N(C[C@@]1(C#Cc3ccc(C4(C)NC(=O)NC4=O)cc3)NC(=O)NC1=O)C2 (stereo partly shown) [Compound 1256] | 0.03
